Measured values: patent US3978210A, “Antibiotic aculeacins” (Toyo Jozo Kabushiki Kaisha, priority 1974, dated 1976)

What was measured:
Candida albicans = experiment: Activity against yeasts, minimum inhibitory concentration; assay type: cell-based; set-up: unit not given here; details: Sabroud agar, 30°C., 48 hours
Description: (§1) 2. Activity against yeasts:
(§2) Assay medium: Sabroud agar, at 30°C., for 48 hours.

Candida krusei = experiment: as above; assay type: cell-based; details: Sabroud agar, 30°C., 48 hours
Description: as §1, §2

Candida parakrusei = experiment: as above; assay type: cell-based; details: Sabroud agar, 30°C., 48 hours
Description: as §1, §2

Candida pseudotropicalis = experiment: as above; assay type: cell-based; details: Sabroud agar, 30°C., 48 hours
Description: as §1, §2

Candida quilliermondii = experiment: as above; assay type: cell-based; details: Sabroud agar, 30°C., 48 hours
Description: as §1, §2

Candida tropicalis = experiment: as above; assay type: cell-based; details: Sabroud agar, 30°C., 48 hours
Description: as §1, §2

Cryptococcus neoiormans = experiment: as above; assay type: cell-based; details: Sabroud agar, 30°C., 48 hours
Description: as §1, §2

Mycotorula japonica = experiment: as above; assay type: cell-based; details: Sabroud agar, 30°C., 48 hours
Description: as §1, §2

Saccharomyces cerevisiae = experiment: as above; assay type: cell-based; details: Sabroud agar, 30°C., 48 hours
Description: as §1, §2

Saccharomyces sake = experiment: as above; assay type: cell-based; details: Sabroud agar, 30°C., 48 hours
Description: as §1, §2

Torula utilis = experiment: as above; assay type: cell-based; details: Sabroud agar, 30°C., 48 hours
Description: as §1, §2

Ascochyta soyaecola = experiment: Activity against fungi, giant colony growth inhibition; assay type: cell-based; details: Sabroud agar, 26°C., 7 to 14 days
Description: (§3) 3. Activity against fungi:
(§4) Since aculeacins have no fungicidal activity, fungi are inoculated in Sabroud agar medium containing several concentrations of aculeacins, and incubated at 26°C. 7 to 14 days. 80% growth inhibitory concentrations of aculeacins are measured by the ratio of area of giant colony to that of control without aculeacins.

Aspergillus fumigatus = experiment: as above; assay type: cell-based; details: Sabroud agar, 26°C., 7 to 14 days
Description: as §3, §4

Cercospora kikuchii = experiment: as above; assay type: cell-based; details: Sabroud agar, 26°C., 7 to 14 days
Description: as §3, §4

[1] = system: Collectotrichum linicolum; experiment: as above; assay type: cell-based; details: Sabroud agar, 26°C., 7 to 14 days
Description: as §3, §4

Corynespora cassicola = experiment: as above; assay type: cell-based; details: Sabroud agar, 26°C., 7 to 14 days
Description: as §3, §4

Diaporthe phaseolorum = experiment: as above; assay type: cell-based; details: Sabroud agar, 26°C., 7 to 14 days
Description: as §3, §4

[2] = system: Fusarium oxysporum f. lini; experiment: as above; assay type: cell-based; details: Sabroud agar, 26°C., 7 to 14 days
Description: as §3, §4

Glomerella cingulata = experiment: as above; assay type: cell-based; details: Sabroud agar, 26°C., 7 to 14 days
Description: as §3, §4

Helminthosporium oryzae = experiment: as above; assay type: cell-based; details: Sabroud agar, 26°C., 7 to 14 days
Description: as §3, §4

Microsporum gypseum = experiment: as above; assay type: cell-based; details: Sabroud agar, 26°C., 7 to 14 days
Description: as §3, §4

Sclerotium bataticola = experiment: as above; assay type: cell-based; details: Sabroud agar, 26°C., 7 to 14 days
Description: as §3, §4

Trichophyton asteroides = experiment: as above; assay type: cell-based; details: Sabroud agar, 26°C., 7 to 14 days
Description: as §3, §4

Trichophyton rubrum = experiment: as above; assay type: cell-based; details: Sabroud agar, 26°C., 7 to 14 days
Description: as §3, §4

mouse = experiment: Acute toxicity on mouse, LD50; assay type: in vivo
Description: 4. Acute toxicity on mouse:
Aculeacins are almost insoluble in water, soluble in 1% sodium carboxy-methyl cellulose (CMC) solution and sodium deoxycholate (DOC). LD50 of aculeacin-A injection prepared by using those additives is as follows: […]

Substance: Aculeacin-A
- minimum inhibitory concentration (Candida albicans; Candida albicans 1): 0.2
- minimum inhibitory concentration (Candida albicans; Candida albicans 2): < 0.1
- minimum inhibitory concentration (Candida albicans; Candida albicans 3): < 0.1
- minimum inhibitory concentration (Candida albicans; Candida albicans 4): 0.2
- minimum inhibitory concentration (Candida albicans; Candida albicans 5): 1.6
- minimum inhibitory concentration (Candida albicans; Candida albicans 6): < 0.1
- minimum inhibitory concentration (Candida albicans; Candida albicans 7): 3.2
- minimum inhibitory concentration (Candida albicans; Candida albicans 8): 0.1
- minimum inhibitory concentration (Candida krusei): 0.8
- minimum inhibitory concentration (Candida parakrusei): 3.2
- minimum inhibitory concentration (Candida pseudotropicalis): 0.8
- minimum inhibitory concentration (Candida quilliermondii): 0.8
- minimum inhibitory concentration (Candida tropicalis): > 100
- minimum inhibitory concentration (Cryptococcus neoiormans): > 100
- minimum inhibitory concentration (Mycotorula japonica): < 0.1
- minimum inhibitory concentration (Saccharomyces cerevisiae): 1.6
- minimum inhibitory concentration (Saccharomyces sake): 1.6
- minimum inhibitory concentration (Torula utilis): < 0.1
- 80% growth inhibitory concentration (Ascochyta soyaecola): 0.08 gamma/ml.
- 80% growth inhibitory concentration (Aspergillus fumigatus): 0.5 gamma/ml.
- 80% growth inhibitory concentration (Cercospora kikuchii): 4.0 gamma/ml.
- 80% growth inhibitory concentration [1]: 0.4 gamma/ml.
- 80% growth inhibitory concentration (Corynespora cassicola): 2.0 gamma/ml.
- 80% growth inhibitory concentration (Diaporthe phaseolorum): 0.01 gamma/ml.
- 80% growth inhibitory concentration [2]: 2.0 gamma/ml.
- 80% growth inhibitory concentration (Glomerella cingulata): 0.06 gamma/ml.
- 80% growth inhibitory concentration (Helminthosporium oryzae): 0.008 gamma/ml.
- 80% growth inhibitory concentration (Microsporum gypseum): 0.008 gamma/ml.
- 80% growth inhibitory concentration (Sclerotium bataticola): 0.08 gamma/ml.
- 80% growth inhibitory concentration (Trichophyton asteroides): 0.004 gamma/ml.
- 80% growth inhibitory concentration (Trichophyton rubrum): 0.006 gamma/ml.
- LD50 (mouse; i.m., in CMC): > 3460 mg/kg
- LD50 (mouse; i.m., in DOC): 600 mg/kg
- LD50 (mouse; i.p., in CMC): 600 mg/kg
- LD50 (mouse; i.v., in DOC): 350 mg/kg
- LD50 (mouse; p.o., in CMC): > 3000 mg/kg
